Results taken from US6410480B1, “Herbicidally active 3-hydroxy-4-aryl-5-oxopyrazoline derivatives” (Syngenta Crop Protection, Inc., priority 1998, dated 2002).

Tests used:
Type in all cases: in vivo
[1] = tested on: Avena; assay: Example B4: post-emergence herbicidal action of compounds of the invention; design: key: 1=complete damage; 9=no effect; Ratings of 1 to 4 (in particular 1 to 3) mean a good to very good herbicidal action; conditions: 3- to 6-leaf stage, 250 g of active substance/ha, 3 weeks after application, scale 1-9
Procedure: (§1) Monocotyledonous and dicotyledonous weeds are grown in standard soil in plastic pots under greenhouse conditions. The test substances are applied at the 3- to 6-leaf stage of the test plants. The test substances are applied (500 l of water/ha) as an aqueous suspension (prepared using a 25% wettable powder (Example F3, b)) or as an emulsion (prepared using a 25% emulsion concentrate (Example F1, c)) at an application rate of 250 g of active substance/ha. 3 weeks after the application, evaluation is carried out using a nine-level scale of ratings (1=complete damage, 9=no effect). Ratings of 1 to 4 (in particular 1 to 3) mean a good to very good herbicidal action. Test plants: Avena (Ave), Lolium (Lol), Setaria (Set).

[2] = tested on: Lolium; assay: as above; design: key: 1=complete damage; 9=no effect; Ratings of 1 to 4 (in particular 1 to 3) mean a good to very good herbicidal action; conditions: 3- to 6-leaf stage, 250 g of active substance/ha, 3 weeks after application, scale 1-9
Procedure: as §1

[3] = tested on: Setaria; assay: as above; design: key: 1=complete damage; 9=no effect; Ratings of 1 to 4 (in particular 1 to 3) mean a good to very good herbicidal action; conditions: 3- to 6-leaf stage, 250 g of active substance/ha, 3 weeks after application, scale 1-9
Procedure: as §1

[4] = tested on: Alopecurus; assay: Example B1: pre-emergence herbicidal action, comparison with prior art; conditions: 500 g of ai/ha, 3 weeks after application, scale 1-9
Source text: (§2) Monocotyledonous and dicotyledonous weeds are sown in standard soil in plastic pots. Immediately after sowing, the test substances are applied (500 l of water/ha) as an aqueous suspension (prepared using a 25% wettable powder (Example F3, b)) or as an emulsion (prepared using a 25% emulsion concentrate (Example F1, c)). The application rate is 500 g of active substance/ha. The test plants are subsequently grown under optimum conditions in a greenhouse. 3 weeks after the application, evaluation is carried out using a nine-level scale of ratings (1=complete damage, 9=no effect). Ratings of 1 to 4 (in particular 1 to 3) mean a good to very good herbicidal action. Test plants: Alopecurus (Alo), Avena (Ave), Lolium (Lot), Setaria (Set), Panicum (Pan), Sorghum (Sor), Digitaria (Dig), Echinocloa (Ech) and Brachiaria (Bra).

[5] = tested on: Avena; assay: as above; conditions: 500 g of ai/ha, 3 weeks after application, scale 1-9
Source text: as §2

[6] = tested on: Brachiaria; assay: as above; conditions: 500 g of ai/ha, 3 weeks after application, scale 1-9
Source text: as §2

[7] = tested on: Digitaria; assay: as above; conditions: 500 g of ai/ha, 3 weeks after application, scale 1-9
Source text: as §2

[8] = tested on: Echinocloa; assay: as above; design: key: 1=complete damage; 9=no effect; Ratings of 1 to 4 (in particular 1 to 3) mean a good to very good herbicidal action; conditions: 500 g of ai/ha, 3 weeks after application, scale 1-9
Source text: as §2

[9] = tested on: Lolium; assay: as above; design: key: 1=complete damage; 9=no effect; Ratings of 1 to 4 (in particular 1 to 3) mean a good to very good herbicidal action; conditions: 500 g of ai/ha, 3 weeks after application, scale 1-9
Source text: as §2

[10] = tested on: Panicum; assay: as above; design: key: 1=complete damage; 9=no effect; Ratings of 1 to 4 (in particular 1 to 3) mean a good to very good herbicidal action; conditions: 500 g of ai/ha, 3 weeks after application, scale 1-9
Source text: as §2

[11] = tested on: Setaria; assay: as above; design: key: 1=complete damage; 9=no effect; Ratings of 1 to 4 (in particular 1 to 3) mean a good to very good herbicidal action; conditions: 500 g of ai/ha, 3 weeks after application, scale 1-9
Source text: as §2

[12] = tested on: Sorghum; assay: as above; design: key: 1=complete damage; 9=no effect; Ratings of 1 to 4 (in particular 1 to 3) mean a good to very good herbicidal action; conditions: 500 g of ai/ha, 3 weeks after application, scale 1-9
Source text: as §2

[13] = tested on: Alopecurus; assay: Example B2: post-emergence herbicidal action, comparison with prior art; conditions: 3- to 6-leaf stage, 500 g of ai/ha, 3 weeks after application, scale 1-9
Procedure: as §1, with “500” for “250”, “plants: Alopecurus (Alo),” for “plants:”, “(Set), Panicum (Pan), Sorghum (Sor), Digitaria (Dig), Echinocloa (Ech) and Brachiaria (Bra).” for “(Set).”

[14] = tested on: Avena; assay: as above; design: key: 1=complete damage; 9=no effect; Ratings of 1 to 4 (in particular 1 to 3) mean a good to very good herbicidal action; conditions: 3- to 6-leaf stage, 500 g of ai/ha, 3 weeks after application, scale 1-9
Procedure: as §1, with “500” for “250”, “plants: Alopecurus (Alo),” for “plants:”, “(Set), Panicum (Pan), Sorghum (Sor), Digitaria (Dig), Echinocloa (Ech) and Brachiaria (Bra).” for “(Set).”

[15] = tested on: Brachiaria; assay: as above; design: key: 1=complete damage; 9=no effect; Ratings of 1 to 4 (in particular 1 to 3) mean a good to very good herbicidal action; conditions: 3- to 6-leaf stage, 500 g of ai/ha, 3 weeks after application, scale 1-9
Procedure: as §1, with “500” for “250”, “plants: Alopecurus (Alo),” for “plants:”, “(Set), Panicum (Pan), Sorghum (Sor), Digitaria (Dig), Echinocloa (Ech) and Brachiaria (Bra).” for “(Set).”

[16] = tested on: Digitaria; assay: as above; design: key: 1=complete damage; 9=no effect; Ratings of 1 to 4 (in particular 1 to 3) mean a good to very good herbicidal action; conditions: 3- to 6-leaf stage, 500 g of ai/ha, 3 weeks after application, scale 1-9
Procedure: as §1, with “500” for “250”, “plants: Alopecurus (Alo),” for “plants:”, “(Set), Panicum (Pan), Sorghum (Sor), Digitaria (Dig), Echinocloa (Ech) and Brachiaria (Bra).” for “(Set).”

[17] = tested on: Echinocloa; assay: as above; design: key: 1=complete damage; 9=no effect; Ratings of 1 to 4 (in particular 1 to 3) mean a good to very good herbicidal action; conditions: 3- to 6-leaf stage, 500 g of ai/ha, 3 weeks after application, scale 1-9
Procedure: as §1, with “500” for “250”, “plants: Alopecurus (Alo),” for “plants:”, “(Set), Panicum (Pan), Sorghum (Sor), Digitaria (Dig), Echinocloa (Ech) and Brachiaria (Bra).” for “(Set).”

[18] = tested on: Lolium; assay: as above; design: key: 1=complete damage; 9=no effect; Ratings of 1 to 4 (in particular 1 to 3) mean a good to very good herbicidal action; conditions: 3- to 6-leaf stage, 500 g of ai/ha, 3 weeks after application, scale 1-9
Procedure: as §1, with “500” for “250”, “plants: Alopecurus (Alo),” for “plants:”, “(Set), Panicum (Pan), Sorghum (Sor), Digitaria (Dig), Echinocloa (Ech) and Brachiaria (Bra).” for “(Set).”

[19] = tested on: Panicum; assay: as above; design: key: 1=complete damage; 9=no effect; Ratings of 1 to 4 (in particular 1 to 3) mean a good to very good herbicidal action; conditions: 3- to 6-leaf stage, 500 g of ai/ha, 3 weeks after application, scale 1-9
Procedure: as §1, with “500” for “250”, “plants: Alopecurus (Alo),” for “plants:”, “(Set), Panicum (Pan), Sorghum (Sor), Digitaria (Dig), Echinocloa (Ech) and Brachiaria (Bra).” for “(Set).”

[20] = tested on: Setaria; assay: as above; design: key: 1=complete damage; 9=no effect; Ratings of 1 to 4 (in particular 1 to 3) mean a good to very good herbicidal action; conditions: 3- to 6-leaf stage, 500 g of ai/ha, 3 weeks after application, scale 1-9
Procedure: as §1, with “500” for “250”, “plants: Alopecurus (Alo),” for “plants:”, “(Set), Panicum (Pan), Sorghum (Sor), Digitaria (Dig), Echinocloa (Ech) and Brachiaria (Bra).” for “(Set).”

[21] = tested on: Sorghum; assay: as above; design: key: 1=complete damage; 9=no effect; Ratings of 1 to 4 (in particular 1 to 3) mean a good to very good herbicidal action; conditions: 3- to 6-leaf stage, 500 g of ai/ha, 3 weeks after application, scale 1-9
Procedure: as §1, with “500” for “250”, “plants: Alopecurus (Alo),” for “plants:”, “(Set), Panicum (Pan), Sorghum (Sor), Digitaria (Dig), Echinocloa (Ech) and Brachiaria (Bra).” for “(Set).”

[22] = tested on: Avena; assay: Example B3: pre-emergence herbicidal action of compounds of the invention; design: key: 1=complete damage; 9=no effect; Ratings of 1 to 4 (in particular 1 to 3) mean a good to very good herbicidal action; conditions: 500 g of active substance/ha, 3 weeks after application, scale 1-9
Procedure: as §1, with “pots. Directly after sowing,” for “pots under greenhouse conditions. The test substances are applied at”, “the” for “the 3- to 6-leaf stage of the test plants. The”, “c)). The” for “c)) at an”, “is 500” for “of 250”, “substance/ha. The test plants are subsequently grown under optimum conditions in a greenhouse” for “substance/ha.”

[23] = tested on: Lolium; assay: as above; design: key: 1=complete damage; 9=no effect; Ratings of 1 to 4 (in particular 1 to 3) mean a good to very good herbicidal action; conditions: 500 g of active substance/ha, 3 weeks after application, scale 1-9
Procedure: as §1, with “pots. Directly after sowing,” for “pots under greenhouse conditions. The test substances are applied at”, “the” for “the 3- to 6-leaf stage of the test plants. The”, “c)). The” for “c)) at an”, “is 500” for “of 250”, “substance/ha. The test plants are subsequently grown under optimum conditions in a greenhouse” for “substance/ha.”

[24] = tested on: Setaria; assay: as above; design: key: 1=complete damage; 9=no effect; Ratings of 1 to 4 (in particular 1 to 3) mean a good to very good herbicidal action; conditions: 500 g of active substance/ha, 3 weeks after application, scale 1-9
Procedure: as §1, with “pots. Directly after sowing,” for “pots under greenhouse conditions. The test substances are applied at”, “the” for “the 3- to 6-leaf stage of the test plants. The”, “c)). The” for “c)) at an”, “is 500” for “of 250”, “substance/ha. The test plants are subsequently grown under optimum conditions in a greenhouse” for “substance/ha.”

[25] = tested on: all of the weeds tested; assay: Experimental comparison with the prior art: herbicidal action, pre- and post-emergence, overall statement; conditions: 500 g of active substance/ha, against all of the weeds tested
Source text: as §2, with “The following compounds were examined for their herbicidal activity: Monocotyledonous” for “Monocotyledonous”, “(Bra). Monocotyledonous and dicotyledonous weeds are grown in standard soil in plastic pots under greenhouse conditions. The test substances are applied at the 3- to 6-leaf stage of the test plants. The test substances are applied (500 l of water/ha) as an aqueous suspension (prepared using a 25% wettable powder (Example F3, b)) or as an emulsion (prepared using a 25% emulsion concentrate (Example F1, c)) at an application rate of 500 g of active substance/ha. […]” for “(Bra).”

| Structure (SMILES) | Post-emergence action, Ave (rating) [1] | Post-emergence action, Lol (rating) [2] | Post-emergence action, Set (rating) [3] | Pre-emergence action, Alo (rating) [4] | Pre-emergence action, Ave (rating) [5] | Pre-emergence action, Bra (rating) [6] | Pre-emergence action, Dig (rating) [7] | Pre-emergence action, Ech (rating) [8] | Pre-emergence action, Lol (rating) [9] | Pre-emergence action, Pan (rating) [10] | Pre-emergence action, Set (rating) [11] | Pre-emergence action, Sor (rating) [12] | Post-emergence action, Alo (rating) [13] | Post-emergence action, Ave (rating) [14] | Post-emergence action, Bra (rating) [15] | Post-emergence action, Dig (rating) [16] | Post-emergence action, Ech (rating) [17] | Post-emergence action, Lol (rating) [18] | Post-emergence action, Pan (rating) [19] | Post-emergence action, Set (rating) [20] | further results |
| --- | --- | --- | --- | --- | --- | --- | --- | --- | --- | --- | --- | --- | --- | --- | --- | --- | --- | --- | --- | --- | --- |
| CCc1cc(Br)cc(C)c1-c1c(OC(=O)C(C)(C)C)n2n(c1=O)CCOCC2 [1.085] | 1 | 2 | 2 |  |  |  |  |  |  |  |  |  |  |  |  |  |  |  |  |  |  |
| Cc1cc(C)c(-c2c(O)n3n(c2=O)CCOCC3)c(C)c1 [1.001] | 1 | 1 | 2 | 3 | 4 | 2 | 2 | 1 | 1 | 1 | 1 | 1 | 2 | 1 | 1 | 1 | 1 | 1 | 1 | 1 | Post-emergence action, Sor (rating) [21]: 1; Pre-emergence action, Ave (rating) [22]: 4; Pre-emergence action, Lol (rating) [23]: 1; Pre-emergence action, Set (rating) [24]: 1 |
| Cc1cc(C)c(C2C(=O)N3CCCCCN3C2=O)c(C)c1 [compound A, reference compound] |  |  |  | 5 | 7 | 3 | 7 | 5 | 4 | 7 | 3 | 6 | 5 | 2 | 2 | 5 | 1 | 5 | 2 | 4 | Post-emergence action, Sor (rating) [21]: 3 |
| CCc1cc(C)cc(CC)c1-c1c(O)n2n(c1=O)CCOCC2 [Compound No. 1.007] | 1 | 1 | 1 |  |  |  |  |  |  |  |  |  |  |  |  |  |  |  |  |  |  |
| Cc1cc(C)c(C2C(=O)N3CCOCCN3C2=O)c(C)c1 [Compound No. 1.01] |  |  |  |  |  |  |  |  |  |  |  |  |  |  |  |  |  |  |  |  | herbicidal action compared with compound A of the prior art [25]: considerably better herbicidal action |
| Cc1cc(Br)c(-c2c(O)n3n(c2=O)CCOCC3)c(Br)c1 [1.088] | 4 | 4 | 3 |  |  |  |  |  |  |  |  |  |  |  |  |  |  |  |  |  |  |
